{"source": "paper PMC10343472", "about": "“Cyclopentenylcytosine (CPE-C): In Vitro and In Vivo Evaluation as an Antiviral against Adenoviral Ocular Infections” (Molecules, 2023)", "key": {"HAdV8": {"tested_on": "HAdV8", "assay": "plaque reduction assay in A549 cells, HAdV8", "type": "cell-based", "conditions": "Human adenovirus sp.", "protocol": "(§1) The in vitro antiviral testing was done using a standard plaque reduction assay with A549 human lung carcinoma cells as previously described. The EC50s were determined using a Fitted Line Plot Regression analysis with Minitab Version 21 software. The EC50 is the effective concentration that inhibits plaque formation by 50%. The HAdV types tested represent the most common adenovirus serotypes that cause ocular infections (HAdV8, HAdV19/64, HAdV37 (EKC); HAdV3, HAdV4, HAdV7a (follicular conjunctivitis)) and serotypes that cause conjunctivitis and can replicate in the rabbit ocular model (HAdV1, HAdV2, HAdV5).\n(§2) For the in vitro antiviral testing, clinical adenovirus isolates of types HAdV1, HAdV2, HAdV3, HAdV4, HAdV5, HAdV7a, HAdV8, and HAdV19/64 were anonymously collected from patients presenting with typical adenoviral conjunctivitis at the Charles T. Campbell Ophthalmic Microbiology Laboratory at the UPMC Eye Center, University of Pittsburgh, Pittsburgh, PA, USA. The isolates were retrieved from a frozen −80 °C retrospective clinical collection that was de-identified and stored for diagnostic test validations. The types of isolates were determined using serum neutralization. Recently, HAdV19 has been reclassified as HAdV64 [41]; however, for the purpose of this study, it was designated as HAdV19/64. No clinical isolates of HAdV37 were identified, therefore the ATCC (American Type Culture Collection, Manassas, VA, USA) reference strain of HAdV37 was used. The clinical isolates along with the ATCC HAdV37 reference strain were grown in A549 cell (CCL-185, ATCC) monolayers and stocks were prepared, aliquoted, and frozen at –80 °C. The titers of the stock viruses were determined as described in Section 4.7. The same clinical isolate of HAdV5 used for the in vitro antiviral testing was also used for the in vivo antiviral evaluation in the Ad5/NZW rabbit ocular replication model.\n(§3) A549 human lung carcinoma cells were grown and maintained in Eagle’s MEM supplemented with 10% fetal bovine serum (Sigma Cell Culture Reagents, St. Louis, MO, USA). The A549 cell line was used to prepare the adenovirus stocks and for the determination of viral titers in the Ad5/NZW rabbit ocular replication model and in the in vitro plaque reduction assays.\n(§4) Plaque reduction assays were performed 2–4 times using 24-well multiplates containing A549 monolayers. One plate per virus isolate per drug was used. The 24-well multiplates were inoculated with approximately 100 plaque-forming units (PFU) of HAdV per well. After a three-hour adsorption period, the inocula were removed from all wells. […] The plates were dried, and the number of plaques per well was counted using a dissecting microscope. […] The mean and standard deviation EC50 concentrations of 2–4 trials were then determined for each HAdV isolate. […]"}, "HAdV5": {"tested_on": "HAdV5", "assay": "Ad5/NZW rabbit ocular replication model", "type": "in vivo, New Zealand white (NZW) rabbits", "conditions": "for number of HAdV5-positive cultures per group on days 1, 3, 4, 5, 7 and 14 compared with saline control: Fisher Exact Test, p < 0.05; for reduction of the duration of shedding: vs saline control; for Duration of HAdV5 Shedding, Mean ± Sd: n = 20; for Mean ± Sd Combined HAdV5 Ocular Titers, Early Phase (Days 1–5) / Mean ± Sd Combined HAdV5 Ocular Titers, Late Phase (Days 7–14): n = 80", "protocol": "Using the Ad5/NZW rabbit ocular replication model, the current study was performed in duplicate trials using a total of 40 rabbits (20 per trial). Following the systemic and topical anesthesia described above, the rabbits were topically inoculated with 50 µL (1.5 × 10^6 PFU/eye) of HAdV5 in both eyes after corneal epithelial scarification (12 cross-hatched strokes of a #25 sterile needle). Twenty-four hours later, the rabbits were randomly assigned to one of four topical treatment groups (n = 10): (1) 3% CPE-C 4X/day, (2) 3% CPE-C 2X/day, (3) 0.5% Cidofovir 2X/day, and (4) Saline Control 4X/day. Rabbits were treated topically in both eyes according to the above treatment regimens for 7 days. The CPE-C ointments were administered as described above in the ocular toxicity study. Cidofovir and saline were administered as 37 µL aqueous drops. Following topical anesthesia with 0.5% proparacaine, ocular swabbing to recover HAdV5 from the tear film and corneal and conjunctival surfaces was performed on days 0, 1, 3, 4, 5, 7, 9, 11, and 14 after inoculation. The cultures were taken at least 1 h after the final dose of antiviral on the days the antivirals were administered. The swabs from each eye were placed individually into tubes containing 1 mL of tissue culture media and were frozen at −80 °C pending viral plaque assay.\nThe samples to be assayed were diluted 1:10 for up to 6 dilutions. One-tenth of a ml of both the undiluted sample and the dilutions was inoculated onto duplicate wells of 24-well multiplates containing A549 monolayers. The virus was adsorbed for 3 h at 37 °C in a 5% CO2-water vapor atmosphere. The plates were rocked intermittently to keep the cells from drying. Following adsorption, 1 mL of tissue culture media containing 0.5% methylcellulose was added to each well, and the plates were incubated at 37 °C in a 5% CO2-water vapor atmosphere. After the appropriate incubation period, the cells were fixed and stained with 0.5% gentian violet in formalin. The plates were dried, and the number of plaques per well was counted under a dissecting microscope. The viral titers were then calculated and expressed as plaque-forming units per milliliter (PFU/mL).\nThe in vitro EC50 data was analyzed with Two-Sample T-Tests using Minitab (Minitab Inc., State College, PA, USA) statistical software Version 21. Following the completion of both trials in the in vivo antiviral efficacy study, the data from each trial were analyzed statistically using Minitab and GraphPad online (https://www.graphpad.com/quickcalcs/contingency1/ (accessed on 16 February 2023)). […] Significance was established at the p ≤ 0.05 confidence level."}, "HAdV4": {"tested_on": "HAdV4", "assay": "plaque reduction assay in A549 cells, HAdV4", "type": "cell-based", "conditions": "Human adenovirus sp.", "protocol": "as §1, §2, §3, §4"}, "HAdV1": {"tested_on": "HAdV1", "assay": "plaque reduction assay in A549 cells, HAdV1", "type": "cell-based", "conditions": "Human adenovirus sp.", "protocol": "as §1, §2, §3, §4"}, "[1]": {"conditions": "A549, HAdV8, converted from μg/mL"}, "[2]": {"conditions": "HAdV8 clinical isolate, A549 cells, mean ± SD of 2–4 trials"}, "[3]": {"conditions": "3% ointment topical 2X/Day for 7 days"}, "[4]": {"conditions": "3% ointment topical 4X/Day for 7 days"}, "[5]": {"conditions": "A549, HAdV4, converted from μg/mL"}, "[6]": {"conditions": "HAdV4 clinical isolate, A549 cells, mean ± SD of 2–4 trials"}, "[7]": {"conditions": "A549, HAdV1, converted from μg/mL"}, "[8]": {"conditions": "HAdV1 clinical isolate, A549 cells, mean ± SD of 2–4 trials"}, "[9]": {"conditions": "0.5% drops topical 2X/Day for 7 days"}}, "note": "Marks after values point to notes of the source that are not given here.", "data": [{"smiles": "Nc1ccn([C@@H]2C=C(CO)[C@@H](O)[C@H]2O)c(=O)n1", "note": "[CPE-C, Cyclopentenylcytosine]", "values": [{"measurement": "EC50", "setting": "HAdV8; [1]", "value": "246 ± 76", "unit": "nM"}, {"measurement": "EC50", "setting": "HAdV8; [2]", "value": "0.059 ± 0.018", "unit": "µg/mL"}, {"measurement": "number of HAdV5-positive cultures per group on days 1, 3, 4, 5, 7 and 14 compared with saline control", "setting": "HAdV5; 3% 2X/day", "value": "significantly reduced"}, {"measurement": "number of HAdV5-positive cultures per group on days 1, 3, 4, 5, 7 and 14 compared with saline control", "setting": "HAdV5; 3% 4X/day", "value": "significantly reduced"}, {"measurement": "reduction of the duration of shedding", "setting": "HAdV5; 3% administered 2X per day for 7 days", "value": 5.6, "unit": "days"}, {"measurement": "reduction of the duration of shedding", "setting": "HAdV5; 3% administered 4X per day for 7 days", "value": 6.8, "unit": "days"}, {"measurement": "HAdV5-Positive Eye Cultures/Total, Early Phase (Days 1–5)", "setting": "HAdV5; [3]", "value": "29/80"}, {"measurement": "HAdV5-Positive Eye Cultures/Total, Early Phase (Days 1–5), percent", "setting": "HAdV5; [3]", "value": 36, "unit": "%"}, {"measurement": "HAdV5-Positive Eye Cultures/Total, Late Phase (Days 7–14)", "setting": "HAdV5; [3]", "value": "2/80"}, {"measurement": "HAdV5-Positive Eye Cultures/Total, Late Phase (Days 7–14), percent", "setting": "HAdV5; [3]", "value": 3, "unit": "%"}, {"measurement": "HAdV5-Positive Eye Cultures/Total, Overall (Days 1–14)", "setting": "HAdV5; [3]", "value": "31/160"}, {"measurement": "HAdV5-Positive Eye Cultures/Total, Overall (Days 1–14), percent", "setting": "HAdV5; [3]", "value": 19, "unit": "%"}, {"measurement": "Duration of HAdV5 Shedding, Mean ± Sd", "setting": "HAdV5; [3]", "value": "2.5 ± 2.3 ^d Days"}, {"measurement": "Mean ± Sd Combined HAdV5 Ocular Titers, Early Phase (Days 1–5)", "setting": "HAdV5; [3]", "value": "3.5 ± 18.1 × 10^1 b Log10 PFU/mL"}, {"measurement": "Mean ± Sd Combined HAdV5 Ocular Titers, Late Phase (Days 7–14)", "setting": "HAdV5; [3]", "value": "3.6 ± 25.2 × 10^0 c Log10 PFU/mL"}, {"measurement": "HAdV5-Positive Eye Cultures/Total, Late Phase (Days 7–14)", "setting": "HAdV5; [4]", "value": "6/80"}, {"measurement": "HAdV5-Positive Eye Cultures/Total, Late Phase (Days 7–14), percent", "setting": "HAdV5; [4]", "value": 8, "unit": "%"}, {"measurement": "HAdV5-Positive Eye Cultures/Total, Overall (Days 1–14)", "setting": "HAdV5; [4]", "value": "24/160"}, {"measurement": "HAdV5-Positive Eye Cultures/Total, Overall (Days 1–14), percent", "setting": "HAdV5; [4]", "value": 15, "unit": "%"}, {"measurement": "Duration of HAdV5 Shedding, Mean ± Sd", "setting": "HAdV5; [4]", "value": "1.3 ± 1.6 ^d Days"}, {"measurement": "Mean ± Sd Combined HAdV5 Ocular Titers, Early Phase (Days 1–5)", "setting": "HAdV5; [4]", "value": "1.6 ± 4.8 × 10^1 b Log10 PFU/mL"}, {"measurement": "Mean ± Sd Combined HAdV5 Ocular Titers, Late Phase (Days 7–14)", "setting": "HAdV5; [4]", "value": "0.9 ± 4.4 × 10^0 c Log10 PFU/mL"}, {"measurement": "EC50", "setting": "HAdV4; [5]", "value": "0.134 ± 0.11", "unit": "µM"}, {"measurement": "EC50", "setting": "HAdV4; [6]", "value": "0.032 ± 0.026", "unit": "µg/mL"}, {"measurement": "EC50", "setting": "HAdV1; [7]", "value": "0.214 ± 0.027", "unit": "µM"}, {"measurement": "EC50", "setting": "HAdV1; [8]", "value": "0.051 ± 0.007", "unit": "µg/mL"}]}, {"smiles": "Nc1ccn(C[C@@H](CO)OCP(=O)(O)O)c(=O)n1", "note": "[Cidofovir, cidofovir, reference compound]", "values": [{"measurement": "EC50", "setting": "HAdV8; [1]", "value": "1560 ± 592", "unit": "nM"}, {"measurement": "EC50", "setting": "HAdV8; [2]", "value": "0.427 ± 0.173", "unit": "µg/mL"}, {"measurement": "number of HAdV5-positive cultures per group on days 1, 3, 4, 5, 7 and 14 compared with saline control", "setting": "HAdV5; 0.5% 2X/day", "value": "significantly reduced"}, {"measurement": "HAdV5-positive cultures on day 9 compared with saline control", "setting": "HAdV5; 0.5% 2X/day, p = 0.0197, FET", "value": "significantly fewer"}, {"measurement": "HAdV5-Positive Eye Cultures/Total, Early Phase (Days 1–5)", "setting": "HAdV5; [9]", "value": "26/80"}, {"measurement": "HAdV5-Positive Eye Cultures/Total, Early Phase (Days 1–5), percent", "setting": "HAdV5; [9]", "value": 33, "unit": "%"}, {"measurement": "HAdV5-Positive Eye Cultures/Total, Late Phase (Days 7–14)", "setting": "HAdV5; [9]", "value": "1/80"}, {"measurement": "HAdV5-Positive Eye Cultures/Total, Late Phase (Days 7–14), percent", "setting": "HAdV5; [9]", "value": 1, "unit": "%"}, {"measurement": "HAdV5-Positive Eye Cultures/Total, Overall (Days 1–14)", "setting": "HAdV5; [9]", "value": "27/160"}, {"measurement": "HAdV5-Positive Eye Cultures/Total, Overall (Days 1–14), percent", "setting": "HAdV5; [9]", "value": 17, "unit": "%"}, {"measurement": "Duration of HAdV5 Shedding, Mean ± Sd", "setting": "HAdV5; [9]", "value": "2.0 ± 1.8 ^d Days"}, {"measurement": "Mean ± Sd Combined HAdV5 Ocular Titers, Early Phase (Days 1–5)", "setting": "HAdV5; [9]", "value": "6.7 ± 12.7 × 10^0 b Log10 PFU/mL"}, {"measurement": "Mean ± Sd Combined HAdV5 Ocular Titers, Late Phase (Days 7–14)", "setting": "HAdV5; [9]", "value": "0.3 ± 2.2 × 10^0 c Log10 PFU/mL"}, {"measurement": "EC50", "setting": "HAdV4; [5]", "value": "16.5 ± 3.31", "unit": "µM"}, {"measurement": "EC50", "setting": "HAdV4; [6]", "value": "4.61 ± 0.925", "unit": "µg/mL"}, {"measurement": "EC50", "setting": "HAdV1; [7]", "value": "18.9 ± 2.11", "unit": "µM"}, {"measurement": "EC50", "setting": "HAdV1; [8]", "value": "5.27 ± 0.588", "unit": "µg/mL"}]}]}
